IC50, Activity and inhibition data for four compounds are collected here from ChEMBL document CHEMBL1158280, “Specific inhibition of human immunodeficiency virus type 1 reverse transcriptase mediated by soulattrolide, a coumarin isolated from the latex of calophyllum teysmannii” (J Nat Prod, 1996).

Activity calls are given as the source filed them. No cut-off for these calls is given here. Bounds are passed on as bounds.

Experiment [1] concerns the target T1, Human immunodeficiency virus type 1 reverse transcriptase (Human immunodeficiency virus 1, UniProt Q72547). Kind of experiment: Inhibition of DNA dependent DNA polymerase activity of HIV1 recombinant reverse transcriptase p66/p51.
Experiment [2] deals with T2, DNA polymerase beta (Homo sapiens, UniProt P06746). Kind of experiment: Inhibition of DNA polymerase beta.
The target of experiment [3] is T1, Human immunodeficiency virus type 1 reverse transcriptase. Kind of experiment: Inhibition of RNA dependent DNA polymerase activity of HIV1 recombinant reverse transcriptase p66/p51.
Experiment [4] relates to Avian myeloblastosis virus. Kind of experiment: Inhibition of Avian myeloblastosis virus reverse transcriptase.
Experiment [5] deals with Human immunodeficiency virus 2. As to the kind of experiment: Inhibition of HIV2 reverse transcriptase p68/p54 expressed in Escherichia coli.
Experiment [6] addresses T3, DNA polymerase alpha catalytic subunit (Homo sapiens) (UniProt P09884).
T3 sequence (whole entry): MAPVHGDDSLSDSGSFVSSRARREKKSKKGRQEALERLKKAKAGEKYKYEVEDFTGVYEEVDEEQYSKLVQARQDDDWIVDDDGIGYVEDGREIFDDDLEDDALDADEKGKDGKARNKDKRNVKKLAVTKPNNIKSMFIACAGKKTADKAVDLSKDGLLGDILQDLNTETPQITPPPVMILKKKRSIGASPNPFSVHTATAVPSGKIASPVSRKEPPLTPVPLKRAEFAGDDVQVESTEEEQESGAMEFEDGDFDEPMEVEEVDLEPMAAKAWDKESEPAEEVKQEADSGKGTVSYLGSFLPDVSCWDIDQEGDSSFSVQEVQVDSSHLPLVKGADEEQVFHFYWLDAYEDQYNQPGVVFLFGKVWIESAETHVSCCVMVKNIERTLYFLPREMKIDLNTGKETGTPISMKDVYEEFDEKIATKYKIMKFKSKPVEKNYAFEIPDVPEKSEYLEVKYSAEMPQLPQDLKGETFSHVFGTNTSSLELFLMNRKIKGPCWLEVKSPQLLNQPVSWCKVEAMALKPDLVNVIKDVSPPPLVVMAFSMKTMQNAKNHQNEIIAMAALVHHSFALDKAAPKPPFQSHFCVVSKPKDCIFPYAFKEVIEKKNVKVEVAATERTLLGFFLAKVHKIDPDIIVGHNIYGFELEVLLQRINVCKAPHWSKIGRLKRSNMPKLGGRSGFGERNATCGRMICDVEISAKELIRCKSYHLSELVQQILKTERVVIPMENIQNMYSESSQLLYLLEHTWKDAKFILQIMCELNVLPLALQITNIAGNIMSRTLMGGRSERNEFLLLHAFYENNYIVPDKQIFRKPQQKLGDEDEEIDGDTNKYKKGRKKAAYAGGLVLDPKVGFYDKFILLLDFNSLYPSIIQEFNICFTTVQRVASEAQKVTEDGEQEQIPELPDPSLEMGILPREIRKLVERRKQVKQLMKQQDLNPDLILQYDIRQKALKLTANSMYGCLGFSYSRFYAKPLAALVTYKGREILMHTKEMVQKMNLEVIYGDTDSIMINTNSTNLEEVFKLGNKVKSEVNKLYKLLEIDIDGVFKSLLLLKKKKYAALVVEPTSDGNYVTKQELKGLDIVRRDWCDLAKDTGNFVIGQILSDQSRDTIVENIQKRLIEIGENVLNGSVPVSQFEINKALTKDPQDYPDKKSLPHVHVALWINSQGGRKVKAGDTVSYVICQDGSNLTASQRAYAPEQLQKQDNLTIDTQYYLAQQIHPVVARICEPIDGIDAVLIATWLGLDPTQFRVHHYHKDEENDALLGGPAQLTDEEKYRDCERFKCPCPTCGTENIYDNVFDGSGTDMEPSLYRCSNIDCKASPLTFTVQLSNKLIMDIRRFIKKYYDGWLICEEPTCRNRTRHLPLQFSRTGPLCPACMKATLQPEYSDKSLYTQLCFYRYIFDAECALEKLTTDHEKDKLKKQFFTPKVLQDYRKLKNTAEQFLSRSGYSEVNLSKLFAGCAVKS
Kind of experiment: Inhibition of DNA polymerase alpha at 495 uM.

The nature of experiment [7]: Inhibition of RNA polymerase at 495 uM.
For experiment [8], the system named is Human immunodeficiency virus 1. Kind of experiment: Inhibition of TIBO-resistant HIV1 reverse transcriptase p66/p51 Tyr181 mutant expressed in Escherichia coli at 495 uM.
For experiment [9], the target named is T2, DNA polymerase beta. Kind of experiment: Inhibition of DNA polymerase beta at 495 uM.
Experiment [10] can be described thus: Inhibition of Escherichia coli RNase H.
Experiment [11] can be described thus: Inhibition of RNA polymerase.
For experiment [12], the system named is Human immunodeficiency virus 1. Kind of experiment: Inhibition of TIBO-resistant HIV1 reverse transcriptase p66/p51 Tyr181 mutant expressed in Escherichia coli.
Experiment [13] deals with Human immunodeficiency virus type 1 reverse transcriptase (Human immunodeficiency virus 1) (UniProt Q72547). As to the kind of experiment: Inhibition of DNA dependent DNA polymerase activity of HIV1 recombinant reverse transcriptase p66/p51 at 495 uM.
A further experiment concerns Escherichia coli. Kind of experiment: Inhibition of Escherichia coli RNase H at 495 uM.
In experiment [14] the test system is Human immunodeficiency virus 2. Kind of experiment: Inhibition of HIV2 reverse transcriptase p68/p54 expressed in Escherichia coli at 495 uM.
For experiment [15], the target named is T3, DNA polymerase alpha catalytic subunit (Homo sapiens). As to the kind of experiment: (§1) Inhibition of DNA polymerase alpha.
Experiment [16] concerns the target Human immunodeficiency virus type 1 reverse transcriptase (Human immunodeficiency virus 1) (UniProt Q72547). As to the kind of experiment: Inhibition of RNA dependent DNA polymerase activity of HIV1 recombinant reverse transcriptase p66/p51 at 495 uM.
The test system of experiment [17] is Avian myeloblastosis virus. Kind of experiment: Inhibition of Avian myeloblastosis virus reverse transcriptase at 495 uM.
For experiment [18], the target named is T4, DNA polymerase alpha catalytic subunit (Homo sapiens, UniProt P09884).
T4 sequence (P09884 whole entry): T3 sequence (whole entry)
The experiment is described as §1.

As to `CCCc1cc(=O)oc2c3c(c4c(c12)OC(C)(C)C=C4)O[C@H](C)[C@@H](C)[C@@H]3O` [CALANOLIDE A], the IC50 in [1] was determined as 320 nM; against DNA polymerase beta [2] it was 205 µM.

As for `CCCc1cc(=O)oc2c3c(c4c(c12)OC(C)(C)C=C4)O[C@@H](C)[C@H](C)[C@@H]3O` [COSTATOLIDE], the IC50 in experiment [1] worked out at 290 nM; in experiment [3] it was 1400 nM.

Take `C[C@H]1[C@H](C)Oc2c3c(c4c(-c5ccccc5)cc(=O)oc4c2[C@H]1O)OC(C)(C)C=C3` [SOULATTROLIDE]: the result in experiment [4], in experiment [5], in [11], in experiment [12] and in experiment [15] was inactive. In addition, the inhibition in experiment [6] came to 28.1%; in experiment [7], 29.7%; in experiment [8], 31.5%; against DNA polymerase beta [9] it was 49.6%; in experiment [13], 87.2%; in the experiment on Escherichia coli it was 86.5%. Also, the inhibition in experiment [14] is 0.7%; in experiment [16], 96.2%; in [17], 20.2%. The IC50 was 340 nM in [1], 730 nM in [3], 69.5 µM in [10] and greater than 495 µM against DNA polymerase beta [2].

`Cc1cn([C@H]2C[C@H](N=[N+]=[N-])[C@@H](CO[P@](=O)(O)O[P@](=O)(O)OP(=O)(O)O)O2)c(=O)[nH]c1=O` [ZIDOVUDINE TRIPHOSPHATE]: the values for the IC50 (in experiment [1]; against DNA polymerase beta [2]; in [18]) were 51 nM, 16 µM and 11 µM, respectively.
